Experimental data reported in publication PMC11938014, “Development and Application of Small Molecule–Peptide Conjugates as Cathepsin K-Specific Covalent Irreversible Inhibitors in Human Osteoclast and Lung Cancer” (JACS Au, 2025).

Key:
[1] = tested on: human osteoclasts; experiment: TRAP staining, osteoclast number on bone slices; type: cell-based; details: inhibitor 1 or 5 μM
Experimental: Figure 6 CTSK inhibition in human osteoclasts. (a) Scheme of the process of maturation of osteoclasts (OCs) derived from human monocytes in the presence of RANKL and M-CSF. (b) Representative pictures of bone resorption after incubation with human OCs treated with vehicle or inhibitors for 10–14 days. Bone resorption was observed by a toluidine blue stain. Increased staining indicates a higher number of resorption pits and greater bone resorption. (c) Quantitative analysis of pit formation in bone slices after incubation with OC treated with GD20 or ODN (1, 5 μM) relative to vehicle treated slices. […] (e) Quantification of osteoclasts number on bone slices after inhibitor treatment, detected by TRAP staining. […] The activity of CTSK in the cells was detected by 2 h labeling with a pan-cathepsin activity-based probe, GB123, followed by a fluorescence scan of the SDS-PAGE detecting CTSK attached to the probe; the red arrow points to the bands of CTSK (above 25 kDa). […]
Blood was taken in an aseptic nontouch technique from consented human volunteers that were bled from the median cubital vein using a 21G needle, by the Declaration of Helsinki. […] The whole bone slice was analyzed by generating a panoramic view of the slice using stitching of images taken with an 20× magnification. […] And again, bone slice slices were imaged as was described before and counted using ImageJ software. […]

[2] = tested on: IL-4-induced macrophage cells; experiment: Residual cathepsin activity in IL-4-induced macrophages lacking CTSK (GB123 gel); type: cell-based, mouse; details: 5 μM, 2 h, then GB123
Experimental: Human and mouse CTSK species have a high degree of structural commonality. […] Therefore, to investigate the inhibitors’ cross-reactivity with mouse CTSK, mouse OCs were cultivated with mouse bone marrow cells stimulated with M-CSF and RANKL for 9–10 days. In addition, control cells differentiated into macrophages that highly express active cathepsins but not CTSK and were generated by treatment with M-CSF and IL-4.[49] Both intact OC and macrophage cells were incubated for 2 h with GD20, vehicle, or ODN, followed by a 2 h incubation with pan-cathepsin probe GB123. The CTSK-specific fluorescent band near 25 kDa disappeared in cells treated with GD20, whereas the other competing band remained unaltered (Figure 7a). Mice OS samples were blotted to identify the different cathepsins in the sample (Figure S9b).
Figure 7 CTSK inhibition in mice osteoclasts. (a) Activity and expression of CTSK in mouse OCs were assessed in the presence of indicated inhibitors. Intact OCs were treated for 2 h with 5 μM inhibitor in the culture medium, followed by 2 h of labeling of residual enzyme activity by GB123. Samples were analyzed by SDS-PAGE and scanned for fluorescence with a Typhoon scanner at 635/670 nm. Western blot with anti-CTSK is shown aside. […] Samples were analyzed by SDS-PAGE and scanned for fluorescence with a Typhoon scanner at 635/670 nm. […]

| SMILES | osteoclast numbers on bone slices (TRAP) [1] | inhibition of cathepsin bands in macrophages that lack CTSK [2] |
| --- | --- | --- |
| CC(C)C[C@H](N[C@@H](c1ccc(-c2ccc(S(C)(=O)=O)cc2)cc1)C(F)(F)F)C(=O)NCC(=O)COC(=O)[C@@H]1CCCN1C(=O)[C@H](CC(C)C)NC(=O)OCC1c2ccccc2-c2ccccc21 [GD20] | no significant alterations | lack of inhibition of any band |
| CC(C)(F)C[C@H](N[C@@H](c1ccc(-c2ccc(S(C)(=O)=O)cc2)cc1)C(F)(F)F)C(=O)NC1(C#N)CC1 [ODN, odanacatib, reference compound] | increase | – |
